Measurements: article PMC7035259, “T-13 and T-26, the novel taxanes with improved oral bioavailability in rats” (Scientific Reports, 2020)

What was measured:
[1] = design: method as in PMID 23811429; conditions: paclitaxel, rats; cited from earlier work
P-glycoprotein (P-gp) = molecular target: T1, P-glycoprotein (P-gp) (Homo sapiens, UniProt P08183); test: Interaction with P-gp in MDCK-MDR1 and MDCK-WT cell permeability studies; format: in vitro ADME; conditions: MDCK-MDR1 and MDCK-WT cells; for P-gp substrate activity: with and without a P-gp inhibitor (such as verapamil); for P-gp inhibition: with and without a P-gp substrate (such as digoxin)
T1 construct: expressed in transfected cells; host or cells: MDCK-MDR1 (Madin-Darby canine kidney cells carrying MDR1); MDCK-WT as control
T1 sequence (P08183 whole entry): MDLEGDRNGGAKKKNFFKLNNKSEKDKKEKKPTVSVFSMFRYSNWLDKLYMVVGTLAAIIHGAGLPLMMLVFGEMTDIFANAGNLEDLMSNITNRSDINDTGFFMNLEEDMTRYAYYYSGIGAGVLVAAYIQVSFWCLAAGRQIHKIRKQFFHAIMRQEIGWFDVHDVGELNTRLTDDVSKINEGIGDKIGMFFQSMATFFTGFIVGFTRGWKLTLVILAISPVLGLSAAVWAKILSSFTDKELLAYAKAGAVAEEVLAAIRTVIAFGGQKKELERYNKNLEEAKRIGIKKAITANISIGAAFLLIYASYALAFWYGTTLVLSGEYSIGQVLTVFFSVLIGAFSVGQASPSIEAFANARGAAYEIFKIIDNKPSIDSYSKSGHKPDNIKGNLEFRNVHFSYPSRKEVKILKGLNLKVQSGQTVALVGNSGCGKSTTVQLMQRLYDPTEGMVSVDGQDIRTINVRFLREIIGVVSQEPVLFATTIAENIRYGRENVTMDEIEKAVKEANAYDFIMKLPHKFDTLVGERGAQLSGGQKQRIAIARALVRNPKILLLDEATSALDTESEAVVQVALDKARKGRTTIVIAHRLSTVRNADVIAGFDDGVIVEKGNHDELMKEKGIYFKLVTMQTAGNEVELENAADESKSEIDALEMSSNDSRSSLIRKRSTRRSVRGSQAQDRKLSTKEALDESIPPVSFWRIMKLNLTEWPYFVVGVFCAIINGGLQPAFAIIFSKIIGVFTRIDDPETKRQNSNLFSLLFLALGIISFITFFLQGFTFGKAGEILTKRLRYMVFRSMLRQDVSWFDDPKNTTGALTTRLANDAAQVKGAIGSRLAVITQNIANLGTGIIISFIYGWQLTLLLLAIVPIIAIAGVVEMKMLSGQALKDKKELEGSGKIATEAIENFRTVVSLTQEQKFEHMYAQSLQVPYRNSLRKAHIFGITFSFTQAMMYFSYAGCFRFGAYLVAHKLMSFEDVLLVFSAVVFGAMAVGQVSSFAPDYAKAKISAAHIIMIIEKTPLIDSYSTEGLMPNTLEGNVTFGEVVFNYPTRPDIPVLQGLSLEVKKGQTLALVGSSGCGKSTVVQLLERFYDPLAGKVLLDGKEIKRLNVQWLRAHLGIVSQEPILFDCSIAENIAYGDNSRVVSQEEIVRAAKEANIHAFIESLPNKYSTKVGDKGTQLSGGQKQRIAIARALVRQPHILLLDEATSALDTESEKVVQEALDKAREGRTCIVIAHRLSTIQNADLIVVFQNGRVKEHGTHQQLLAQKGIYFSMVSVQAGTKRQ
Excerpt: In an attempt to increase the solubility of taxoids and develop more safe clinical formulations, we previously synthesized a series of novel taxol analogs by modifying the positions of C7, C10, C14 and C3′, which have improved water solubility and oral bioavailability. […] In order to further evaluate the substrate activity of novel taxol analogs with P-gp and whether they are P-gp inhibitors, T-13 and T-26 were selected based on structural characteristics (with or without 1, 14-carbonate moiety) and cytotoxicity in vitro for evaluation of the interaction with P-gp in Madin-Darby canine kidney (MDCK)-multidrug resistance-1 (MDR1) and MDCK-wild type (WT) cells (a more P-gp specific model)[13],[14] permeability studies, under two sets of conditions: one with and without a P-gp inhibitor (such as verapamil) to look at whether the test compounds were P-gp substrates or not, one with and without a P-gp substrate (such as digoxin) to look at whether the test compounds were P-gp inhibitors or not. […] Therefore, the permeability of the Caco-2 cells was enhanced in vitro.

[2] = Pharmacokinetics after intravenous and oral administration in rats (LC-MS/MS of plasma); format: in vivo, male Sprague-Dawley (S.D.) rats; conditions: oral 60 mg/kg vs intravenous 5 mg/kg, F = (AUCp.o × Dosei.v)/(AUCi.v × Dosep.o) × 100%; for bioavailability: male, Sprague-Dawley, rat, plasma, read-out: F (absolute oral bioavailability)
Experimental: For the pharmacokinetic study, male S.D. rats (average weight 300 g) were fasted overnight to prevent coprophagia but allowing free access to water. The rats were randomly divided into four groups (6 animals each). The dosages of taxanes used in the pharmacokinetic study were based on the previously published reports[15]–[17]. For solution, T-13 and T-26 were dissolved in a mixture of Tween 80 and ethanol (50:50, v/v) at 50 mg/mL for intravenous and oral administration, respectively. Group I received the T-13 stock solution diluted with normal saline solution up to 1 mL at a dose of 5 mg/kg for intravenous injection. Group II received T-13 at a dose of 60 mg/kg for oral administration. Group III received the compound T-26 stock solution diluted with normal saline solution up to 1 mL at a dose of 5 mg/kg for intravenous injection. Group IV received T-26 at a dose of 60 mg/kg for oral administration.
Blood samples (~0.20 mL) were collected into heparin coated tubes at 0, 5, 10, 20, 40 min, 1, 2, 4, 6, 8, 12 and 24 h after intravenous injection and 5, 15, 30, 45 min, 1, 2, 4, 6, 8, 12 and 24 h after oral administration. Blood samples were centrifuged at 12,000 rpm for 10 min. The supernatant fractions were transferred into labeled microcentrifuge tubes and stored at −40 °C until LC-MS/MS analysis.
The concentration of T-13 and T-26 were determined in plasma by LC/MS as described above. Calibration curves were used for the conversion of the T-13/Paclitaxel chromatographic area to the concentration. Calibrator and quality control samples were prepared by adding appropriate volumes of standard T-13 or T-26 acetonitrile solution to drug-free plasma. Calibration curves were designed over the range 5–10,000 ng/mL (γ^2 > 0.999). An aliquot (100 μL) of plasma sample was mixed with 100 μL of acetonitrile containing internal standard (PTX, 500 ng/mL), followed by vortex mixing. Then the mixture was added 3 mL of ethyl acetate, followed by vortex gentle agitation for 3 min. […] The supernatant fraction was transferred to auto-sampler vial, and analyzed by HPLC. […]
The pharmacokinetic analysis of concentration-time data obtained after the administration of the compounds T-13 and T-26 were analyzed by a noncompartmental model using Xcalibur® (version 1.3) Software (Thermo Finnigan). The following pharmacokinetic parameters were calculated from the plasma data of Group I and Group III using WinNonlin5.2. Software: total area under the plasma concentration versus time curve, determined by extrapolation from 0 to ∞ after intravenous administration (AUCiv), half-life of the terminal phase (t1/2) and the mean residence time (MRT). Other parameters such as maximum plasma concentration (Cmax) and the time to reach Cmax (Tmax) were also analyzed after oral administration in rats.

Caco-2 monolayer cells = test system: Caco-2 monolayer cells; design: method as in PMID 24332858; conditions: cited from earlier work

Row | SMILES | oral bioavailability [1] [%] | P-gp substrate activity (P-glycoprotein (P-gp)) | P-gp inhibition (P-glycoprotein (P-gp)) | bioavailability [2] [%] | F (absolute oral bioavailability) [2] [%] | efflux ratio (Caco-2 monolayer cells) | permeability (Caco-2 monolayer cells)
1 | CC(=O)O[C@H]1C(=O)[C@@]2(C)[C@H]([C@H](OC(=O)c3ccccc3)[C@]3(O)C[C@H](OC(=O)[C@H](O)[C@@H](NC(=O)c4ccccc4)c4ccccc4)C(C)=C1C3(C)C)[C@]1(OC(C)=O)CO[C@@H]1C[C@@H]2O [paclitaxel, Paclitaxel] | 5 | – | – | – | – | – | –
2 | CO[C@H]1C(=O)[C@]2(C)[C@@H](OC(=O)N(C)C)C[C@H]3OC[C@@]3(OC(C)=O)[C@H]2[C@H](OC(=O)c2ccccc2)[C@]2(O)C[C@H](OC(=O)[C@H](O)[C@@H](NC(=O)OC(C)(C)C)c3ccccc3)C(C)=C1C2(C)C [Compound T-13] | – | poor substrates of P-gp | possessed inhibiting effects of P-gp mediated efflux | ~11 | 10.71 | less than 2.0 | highest permeability
3 | CO[C@H]1C(=O)[C@]2(C)[C@@H](OC(=O)N(C)C)C[C@H]3OC[C@@]3(OC(C)=O)[C@H]2[C@H](OC(=O)c2ccccc2)[C@]2(O)C[C@H](OC(=O)[C@H](O)[C@H](CC(C)C)NC(=O)OC(C)(C)C)C(C)=C1C2(C)C [Compound T-15] | – | – | – | – | – | less than 2.0 | highest permeability
4 | CO[C@H]1C[C@H]2OC[C@@]2(OC(C)=O)[C@H]2[C@H](OC(=O)c3ccccc3)[C@]34OC(=O)O[C@H]3[C@H](OC(=O)[C@H](O)[C@@H](NC(=O)OC(C)(C)C)c3ccccc3)C(C)=C([C@@H](OC(=O)N(C)C)C(=O)[C@]12C)C4(C)C [Compound T-26] | – | poor substrates of P-gp | possessed inhibiting effects of P-gp mediated efflux | ~66 | 65.79 | less than 2.0 | highest permeability
